Experimental data reported in patent US10988455B2, “1,2,4-triazine-4-amine derivatives” (Heptares Therapeutics Limited, priority 2010, dated 2021).

Legend:
[1] = biological target: human adenosine A1 receptor (Homo sapiens (Human), UniProt P30542); test: CHO-hA1 [3H]DPCPX binding assay (Test A); settings: CHO membranes, 1 nM [3H]DPCPX, 25° C., 1 h
Experimental: (§1) All test compounds were prepared as a stock solution of 10 mM in 100% DMSO.

[2] = system: haloperidol-induced catalepsy in rats; test: Catalepsy reversal test (Test B); type: in vivo, Sprague-Dawley rats; settings: dose of 1 mg/kg p.o., 120 min pre-test time
Experimental: The dopamine D2 receptor antagonist, haloperidol, induces Parkinsonism in humans and induces motor effects in rats such as catalepsy. There is considerable evidence that adenosine A2A receptor antagonists reverse haloperidol-induced motor effects in preclinical studies. […] The present study determines the ability of haloperidol-induced catalepsy in rats to be reversed by novel A2A receptor antagonists.
Haloperidol (0.82 mg/kg, i.p.; 150 min pre-test time) induces significant cataleptic behaviour in rats (average score 3.1). The effect of selected compounds of the invention (2-10 mg/kg or 0.3-3 mg/kg, p.o.; 120 min pre-test time) on catalepsy was established by administration of said compounds to rats pre-treated with haloperidol as described above.
Details of a similar test may be found in, for example, Hodgson et al., J. Pharmacol. Exp. Ther. 330, 2009.

[3] = biological target: human adenosine A2a receptor (Homo sapiens (Human), UniProt P29274); test: HEK293-hA2a [3H]-ZM241385 binding assay (Test A); settings: HEK293 membranes, 1 nM [3H]ZM241385, 25° C., 1 h
Experimental: as §1

Sequence of human adenosine A1 receptor (P30542 whole entry): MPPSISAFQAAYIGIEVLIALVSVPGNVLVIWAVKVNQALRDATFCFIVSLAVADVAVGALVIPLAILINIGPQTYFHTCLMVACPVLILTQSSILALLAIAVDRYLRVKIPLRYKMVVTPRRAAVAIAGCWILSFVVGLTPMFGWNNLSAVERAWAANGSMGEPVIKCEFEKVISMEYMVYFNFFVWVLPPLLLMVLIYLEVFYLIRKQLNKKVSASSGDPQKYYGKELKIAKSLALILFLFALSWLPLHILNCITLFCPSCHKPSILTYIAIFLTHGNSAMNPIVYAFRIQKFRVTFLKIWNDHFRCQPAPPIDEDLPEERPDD
Sequence of human adenosine A2a receptor (P29274 whole entry): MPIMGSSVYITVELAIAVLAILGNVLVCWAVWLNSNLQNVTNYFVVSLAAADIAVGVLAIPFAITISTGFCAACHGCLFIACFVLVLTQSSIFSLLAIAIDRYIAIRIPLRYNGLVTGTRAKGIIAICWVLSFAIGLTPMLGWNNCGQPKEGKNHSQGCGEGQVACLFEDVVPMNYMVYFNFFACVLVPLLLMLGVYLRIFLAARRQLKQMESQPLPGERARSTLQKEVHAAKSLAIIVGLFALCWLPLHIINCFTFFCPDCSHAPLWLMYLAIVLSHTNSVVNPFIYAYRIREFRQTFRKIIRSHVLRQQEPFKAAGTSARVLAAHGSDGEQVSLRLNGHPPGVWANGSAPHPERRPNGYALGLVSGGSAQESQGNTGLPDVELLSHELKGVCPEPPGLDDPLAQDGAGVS

pKi A1 [1]: 8.05
pKi A2a [3]: 8.52
SMILES: Cc1cc(-c2nnc(N)nc2-c2ccccc2)cc(N2CCC2)n1 [5(x), 6-[2-(Azetidin-1-yl)-6-methylpyridin-4-yl]-5-phenyl-1,2,4-triazin-3-amine]
reversal of cataleptic behavior in rats pre-treated with haloperidol [2]: statistically significant
